In patent US7855290B2, “Pyridine derivatives and pyrimidine derivatives (3)” (Eisai R&D Management Co., Ltd., priority 2005, dated 2010):

These molecules were tested against T1, His6-HGFR (HGFR cytoplasmic domain) (Homo sapiens, UniProt P08581) (assay: Inhibitory activity against HGFR tyrosine kinase activity (HTRF)). Conditions: biotin-poly(GT), ATP, 30° C. 10 min.
T1 construct: made in house; host or cells: Sf9 insect cells (Spodoptera frugiperda), baculovirus, pFastBac-HT vector
Assay type: biochemical
Method in brief: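 Sf9-expressed, Ni-NTA-purified N-terminal His6-tagged HGFR cytoplasmic domain (from Lys974), 30 ng, phosphorylates 250 ng biotin-poly(GT) in Hepes pH 7.4 with MgCl2, MnCl2 and Na3VO4. Reaction started with 4 μM ATP stock, run 10 min at 30° C, stopped with EDTA. Phosphotyrosine is detected by HTRF.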

T1 sequence (P08581 956-1390 limits assumed): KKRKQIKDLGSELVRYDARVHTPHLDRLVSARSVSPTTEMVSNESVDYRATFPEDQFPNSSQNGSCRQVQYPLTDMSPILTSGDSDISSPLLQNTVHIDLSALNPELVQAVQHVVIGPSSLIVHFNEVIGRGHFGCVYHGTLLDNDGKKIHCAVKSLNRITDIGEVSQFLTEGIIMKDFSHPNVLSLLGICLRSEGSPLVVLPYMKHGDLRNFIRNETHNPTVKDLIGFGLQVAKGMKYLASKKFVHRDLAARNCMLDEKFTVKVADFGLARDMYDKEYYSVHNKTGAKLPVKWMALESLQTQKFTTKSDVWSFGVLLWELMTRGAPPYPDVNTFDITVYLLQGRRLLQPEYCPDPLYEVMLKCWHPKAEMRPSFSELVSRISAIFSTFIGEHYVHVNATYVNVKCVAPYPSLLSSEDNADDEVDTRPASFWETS

In order of rising IC50:
1. O=C(Nc1cc(Oc2ccc(NC(=O)C3(C(=O)Nc4ccc(F)cc4)CC3)c(F)c2)ccn1)N1CC[C@@H](O)C1 [Example 87, N-(2-Fluoro-4-{[2-({[(3R)-3-hydroxypyrrolidin-1-yl]carbonyl}amino)pyridin-4-yl]oxy}phenyl)-N′-(4-fluorophenyl)cyclopropane-1,1-dicarboxamide]  9 nM
2. O=C(Nc1cc(Oc2ccc(NC(=O)C3(C(=O)Nc4ccc(F)cc4)CC3)cc2F)ccn1)N1CCC(O)CC1 [Example 84, N-[3-Fluoro-4-[(2-{[(4-hydroxypiperidin-1-yl)carbonyl]amino}pyridin-4-yl)oxy]phenyl}-N′-(4-fluorophenyl)cyclopropane-1,1-dicarboxamide]  9 nM
3. O=C(Nc1cc(Oc2ccc(NC(=O)C3(C(=O)Nc4ccc(F)cc4)CC3)cc2F)ccn1)N1CC[C@@H](O)C1 [Example 86, N-(3-Fluoro-4-{[2-({[(3R)-3-hydroxypyrrolidin-1-yl]carbonyl}amino)pyridin-4-yl]oxy}phenyl)-N′-(4-fluorophenyl)cyclopropane-1,1-dicarboxamide]  12 nM
4. O=C(Nc1cc(Oc2cc(F)c(NC(=O)C3(C(=O)Nc4ccc(F)cc4)CC3)cc2F)ccn1)N1CCC1 [Example 90, N-[4-({2-[(Azetidin-1-ylcarbonyl)amino]pyridin-4-yl}oxy)-2,5-difluorophenyl]-N′-(4-fluorophenyl)cyclopropane-1,1-dicarboxamide]  12 nM
5. O=C(Nc1cc(Oc2ccc(NC(=O)C3(C(=O)Nc4ccc(F)cc4)CC3)c(F)c2)ccn1)N1CC[C@H](O)C1 [Example 89, N-(2-Fluoro-4-{[2-({[(3S)-3-hydroxypyrrolidin-1-yl]carbonyl}amino)pyridin-4-yl]oxy}phenyl)-N′-(4-fluorophenyl)cyclopropane-1,1-dicarboxamide]  13 nM
6. O=C(Nc1cc(Oc2ccc(NC(=O)C3(C(=O)Nc4ccc(F)cc4)CC3)cc2F)ccn1)N1CCC(CO)CC1 [Example 85, N-(3-Fluoro-4-{[2-({[-4-(hydroxymethyl)piperidin-1-yl]carbonyl}amino)pyridin-4-yl]oxy}phenyl)-N′-(4-fluorophenyl)cyclopropane-1,1-dicarboxamide]  15 nM
7. O=C(Nc1cc(Oc2ccc(NC(=O)C3(C(=O)Nc4ccc(F)cc4)CC3)cc2F)ccn1)N1CC[C@H](O)C1 [Example 88, N-(3-Fluoro-4-{[2-({[(3S)-3-hydroxypyrrolidin-1-yl]carbonyl}amino)pyridin-4-yl]oxy}phenyl)-N′-(4-fluorophenyl)cyclopropane-1,1-dicarboxamide]  16 nM
8. O=C(Nc1cc(Oc2ccc(NC(=O)C3(C(=O)Nc4ccc(F)cc4)CC3)c(F)c2)ccn1)N1CCC(O)CC1 [Example 82, N-[2-Fluoro-4-[(2-{[(4-hydroxypiperidin-1-yl)carbonyl]amino}pyridin-4-yl)oxy]phenyl}-N′-(4-fluorophenyl)cyclopropane-1,1-dicarboxamide]  16 nM
9. O=C(Nc1cc(Oc2ccc(NC(=O)C3(C(=O)Nc4ccc(F)cc4)CC3)c(F)c2)ccn1)N1CCC(CO)CC1 [Example 83, N-(2-Fluoro-4-{[2-({[4-(hydroxymethyl)piperidin-1-yl]carbonyl}amino)pyridin-4-yl]oxy}phenyl)-N′-(4-fluorophenyl)cyclopropane-1,1-dicarboxamide]  17 nM
10. O=C(Nc1cc(Oc2cc(F)c(NC(=O)C3(C(=O)Nc4ccc(F)cc4)CC3)cc2F)ccn1)N1CC(CO)C1 [Example 96, N-(2,5-Difluoro-4-{[2-({[3-(hydroxymethyl)azetidin-1-yl]carbonyl}amino)pyridin-4-yl]oxy}phenyl)-N′-(4-fluorophenyl)cyclopropane-1,1-dicarboxamide]  17 nM
11. O=C(Nc1cc(Oc2ccc(NC(=O)C3(C(=O)Nc4ccc(F)cc4)CC3)cc2F)ccn1)N1CC(CO)C1 [Example 81, N-(3-Fluoro-4-{[2-({[3-(hydroxymethyl)azetidin-1-yl]carbonyl}amino)pyridin-4-yl]oxy}phenyl)-N′-(4-fluorophenyl)cyclopropane-1,1-dicarboxamide]  19 nM
12. O=C(Nc1cc(Oc2cc(F)c(NC(=O)C3(C(=O)Nc4ccc(F)cc4)CC3)cc2F)ncn1)N1CC(O)C1 [Example 97, N-{2,5-Difluoro-4-[(4-{[(3-hydroxyazetidin-1-yl)carbonyl]amino}pyrimidin-6-yl)oxy]phenyl}-N′-(4-fluorophenyl)cyclopropane-1,1-dicarboxamide]  21 nM
13. CN(C)CC1CN(C(=O)Nc2cc(Oc3cc(F)c(NC(=O)C4(C(=O)Nc5ccc(F)cc5)CC4)cc3F)ccn2)C1 [Example 93, N-[2,5-Difluoro-4-({2-[({3-[(dimethylamino)methyl]azetidin-1-yl]carbonyl)amino]pyridin-4-yl}oxy)phenyl]-N′-(4-fluorophenyl)cyclopropane-1,1-dicarboxamide]  42 nM
14. CN1CCN(C2CCN(C(=O)Nc3cc(Oc4cc(F)c(NC(=O)C5(C(=O)Nc6ccc(F)cc6)CC5)cc4F)ccn3)CC2)CC1 [Example 92, N-(2,5-Difluoro-4-{[2-({[4-(4-methylpiperazin-1-yl)piperidin-1-yl]carbonyl}amino)pyridin-4-yl]oxy}phenyl)-N′-(4-fluorophenyl)cyclopropane-1,1-dicarboxamide]  47 nM
15. O=C(Nc1cc(Oc2cc(F)c(NC(=O)C3(C(=O)Nc4ccc(F)cc4)CC3)cc2F)ccn1)N1CC(CN2CCC2)C1 [Example 95, N-{4-[(2-{[3-(Azetidin-1-ylmethyl)azetidin-1-ylcarbonyl]amino}pyridin-4-yl)oxy]-2,5-difluorophenyl}-N′-(4-fluorophenyl)cyclopropane-1,1-dicarboxamide]  50 nM
16. CN(C)CC1CCN(C(=O)Nc2cc(Oc3ccc(NC(=O)C4(C(=O)Nc5ccc(F)cc5)CC4)cc3F)ccn2)CC1 [Example 5, N-[4-({2-[({4-[(Dimethylamino)methyl]piperidin-1-yl}carbonyl)amino]pyridin-4-yl}oxy)-3-fluorophenyl]-N′-(4-fluorophenyl)cyclopropane-1,1-dicarboxamide]  60 nM
17. CN(C)CC1CN(C(=O)Nc2cc(Oc3cc(F)c(NC(=O)C4(C(=O)Nc5ccc(F)cc5)CC4)cc3F)ncn2)C1 [Example 98, N-[4-({4-[({3-[(Dimethylamino)methyl]azetidin-1-yl}carbonyl)amino]pyrimidin-6-yl}oxy)-2,5-difluorophenyl]-N′-(4-fluorophenyl)cyclopropane-1,1-dicarboxamide]  67 nM
